Assay results as given in US8993633B2, “Treatment of muscle disease characterized by insulin resistance” (Fate Therapeutics, (Canada) Inc., priority 2009, dated 2015).

Key:
GSK-3β = GSK-3β kinase activity in skeletal muscle of treated mdx mice; format: in vivo, mouse; conditions: for reduction of GSK-3β activity compared to mdx-S control: metformin 100 mg/kg/day by osmotic pump
Procedure: (§1) Studies were conducted in which metformin was administered to 4-week old mdx mice followed by extensive biochemical and morphologic analysis. The 4-week age group coincides with the early muscle degeneration/regeneration cycle and as such tests the ability of metformin to limit the degeneration process that begins at 3-4 weeks of age in this murine model of DMD. Metformin delivery was accomplished with the use of osmotic pump technology (Alzet). Alzet osmotic pumps are produced in a variety of formats ideal for use in murine models. The pumps were preloaded with metformin and then surgically implanted in a subcutaneous position suitable for long-term delivery, i.e. mid-scapular region. The Alzet osmotic pump was loaded with a metformin concentration selected to deliver 100 mg/kg/body wt per day, per standard diabetic treatment regimes, at 28 days of continuous infusion (Misra 2008). A skilled person will appreciate that metformin could be given orally or by other routes of administration to humans but the osmotic pump is a convenient way to regulate administration over the 28 days of the murine model. Control animals were implanted with osmotic pumps containing saline. Given that metformin is an anti-hyperglycemic agent, blood glucose levels were measured.
(§2) Wild-type (C57BL-10) and mdx mice (C57BL/10ScSn-DMD/^mdx) were purchased from Jackson Laboratories (Bar Harbour, Me.) and housed in the University of Ottawa Animal Care Facility. Mice aged 3-4 weeks (peak necrotic stage) were surgically implanted with an (Alzet) osmotic mini-pump containing metformin or insulin for 14 and 28 days. Animals were randomly assigned to experimental or control treatment groups. Depending on the experiment, Mdx mice either received 100 mg/kg/d of metformin (Aldrich) (mdx-M) or 0.75 U of insulin (Sigma) (mdx-I). […]
(§3) Muscle samples were homogenized and quantified for protein concentration using Brafford Assay. […] Incorporation of radioactivity was counted using liquid scintillation counter. […]

mdx mice [1] = test: H&E myofiber pathology and morphometry in mdx skeletal muscle; format: in vivo, mouse; conditions: for proportion of smaller myofibers (CSA<1500 μm^2): mdx-M
Procedure: as §1
(§4) Wild-type (C57BL-10) and mdx mice (C57BL/10ScSn-DMD/^mdx) were purchased from Jackson Laboratories (Bar Harbour, Me.) and housed in the University of Ottawa Animal Care Facility. Mice aged 3-4 weeks (peak necrotic stage) were surgically implanted with an (Alzet) osmotic mini-pump containing metformin or insulin for 14 and 28 days. Animals were randomly assigned to experimental or control treatment groups. Depending on the experiment, Mdx mice either received 100 mg/kg/d of metformin (Aldrich) (mdx-M) or 0.75 U of insulin (Sigma) (mdx-I). Drug concentrations were based on the effective dose range used in diabetic mouse models (Bailey and Puah, 1986; Cohen et al., 2004)
(§5) Control groups were surgically implanted with the mini-pump containing saline (wild type [WT-S], mdx-S). Following completion of drug treatment, animals were sacrificed by cervical dislocation and skeletal muscles (tibialis anterior TA, diaphragm DIA, gastrocnemius Gastro, and Soleus) were harvested. For analysis of biochemistry, skeletal muscles were snap frozen in liquid nitrogen. For preparation of paraffin sections skeletal muscles were fixed in formalin.
Muscle sections were rehydrated in xylene followed by descending alcohols (100%, 95%, 80%), incubated in Shandon Instant Hematoxylin (Fisher Scientific) for 3 mins, washed 1 min, incubated in Eosin (Fisher Scientific) for 3 mins and then dehydrated in ascending alcohols followed by incubation in xylene. Stained sections were mounted with permount (Fisher Scientific). Quantification of morphometric parameters was performed on ˜1000 fibers per muscle.

GLUT4 = GLUT4 localization by immunohistochemistry in mdx skeletal muscle; format: in vivo, mouse
Procedure: as §1, with “A skilled person will appreciate that metformin could be given orally or by other routes of administration to humans but the osmotic pump is a convenient way to regulate administration over the 28 days of the murine model. Control animals were implanted with osmotic pumps containing saline.” left out, “measured. […]” for “measured.”
Paraffin embedded muscles were section transversely (10 µm) and deparaffinized in descending alcohols, blocked with 3% BSA and permeabilized in 0.1% triton in PBS for 1 h at RT. […] Sections were then washed and mounted using fluorescence mounting medium (DAKO).

AKT = AKT kinase activity in skeletal muscle of treated mdx mice; format: in vivo, mouse; conditions: for increase in AKT kinase activity compared to mdx-S control: metformin 100 mg/kg/day by osmotic pump
Procedure: as §1, §2, §3

mdx mice [2] = test: Monitoring of blood glucose and adverse health effects during drug treatment of mdx mice; format: in vivo, mouse; conditions: metformin 100 mg/kg/day, throughout drug treatment
Procedure: as §1

[3] = cited from earlier work
mdx mice [4] = test: Glycogen deposition by periodic acid Schiff staining in mdx skeletal muscle; format: in vivo, mouse; conditions: TA muscle of mdx mice, metformin treatment, PAS staining
Procedure: as §1, with “measured. […]” for “measured.”

DGC = DGC component and utrophin protein levels and sarcolemmal distribution in mdx muscle; format: in vivo, mouse
Procedure: as §1, §4, §5
Paraffin embedded muscles were section transversely (10 µm) and deparaffinized in descending alcohols, blocked with 3% BSA and permeabilized in 0.1% triton in PBS for 1 h at RT. Sections were then incubated in primary antibodies against GLUT4 (Chemicon), Laminin (Sigma), Utrophin, 13-Dystroglycan and γ-Sarcoglycan were purchased from Vector Laboratories. In order to amplify primary antibody signal the avidin/biotin complex technique was performed on muscle sections. As well primary mouse antibodies were diluted in M.O.M diluent (M.O.M. Basic Kit, Vector Laboratories). In brief, sections were incubated with primary antibody overnight at 4° C. then incubated in biotinylated secondary antibody for 30 mins at RT, followed by incubation in FITC-streptoavidin conjugated secondary antibody (Molecular Probes) for 1 h at RT. Sections were then washed and mounted using fluorescence mounting medium (DAKO).
Muscle samples were homogenized, lyzed and quantified for protein concentration using Brafford Assay. Equal concentrations of protein samples were resolved by 6-8% SDS-PAGE and transferred to nitrocellulose membranes. Primary antibodies against IRS, IRS^y941, IRS^S307, anti-MHC (clone MF20) were used at a dilution of 1:500. Rabbit polyclonal antibodies were detected using horseradish peroxidase-conjugated anti-rabbit at dilution of 1:5000. Immunoblots were developed using with Supersignal West Pico Chemiluminescence substrate.

mdx mice [5] = test: Evans blue dye uptake (sarcolemmal integrity) in mdx muscle; format: in vivo, mouse; conditions: metformin-treated mdx, 28 days; untreated (MS) 42%
Procedure: as §4
To measure sarcolemmal integrity, treated and untreated mdx mice were injected intravenously through the dorsal tail vein with 50 ul/10 g of 1% Evans Blue Dye (EBD, Sigma) in sterilized phosphate-buffered saline (PBS 7.4). Skeletal muscle was harvested 6-8 hrs post-injection and prepared for immunofluorescence as previously described. To visualize sarcolemmal membrane, EBD infiltrated fibers sections were incubated in anti-laminin (Sigma) at 4° C. overnight and then mounted in fluorescent mounting medium (DAKO).

AMPK = AMPK kinase activity in skeletal muscle of treated mdx mice; format: in vivo, mouse; conditions: metformin 100 mg/kg/day by osmotic pump, 28 days
Procedure: as §1, with “measured. […]” for “measured.”

mdx mice [6] = test: Rotorod test of motor performance in mdx mice; format: in vivo, mouse; conditions: mdx mice treated 28 days, by the 4th trial; 15 rpm start, 0.1 rpm/s acceleration
Procedure: Metformin treated mdx-mice display improved motor performance compared to saline-treated mdx-mice. Mice (mdx) 3-4 weeks of age were treated with metformin or saline for 28 days according to the protocol described above. At the end of the treatment phase, a rotorod test was performed, which was repeated daily for 3 consecutive days. The mice were 7-8 weeks of age when tested, thus young adults. The initial rotorod speed for each trial was 15 rpm with gradual acceleration at a rate of 0.1 rpm per second. Mean fall latency time refers to the average amount of time the mice could run on the rotating rod (seconds). As soon as the animals fell from the rod, the time was stopped. The average value shown represents the average of each trial (1-4) performed for 3 consecutive days. The rotorod test is a behavioural test of motor coordination or performance and fatigue resistance or exercise tolerance, where the earlier time points are essentially an adaptation to the rotorod.

[7] = 28-day insulin delivery (0.75 U)
[8] = immunoblot, compared to mdx-Saline control
[9] = immunohistochemistry, mdx myofibers

For “insulin: insulin (Sigma), 0.75 U delivered by osmotic mini-pump to mdx mice (mdx-I)”, the GSK3β kinase activity (GSK-3β; [7]) was “only marginal changes”, the “fiber size variability and protection against degeneration (H&E)” value (mdx mice [1]; TA and DIA fibers of mdx-I) was “no reduction in fiber size variability and protection against degeneration” and the “number of centrally located nuclei” value (mdx mice [1]; mdx-I vs mdx-S) was “remained comparable”. The “fiber size distribution (morphometric analysis)” value (mdx mice [1]; mdx-I, in particular the DIA) was “no overall change”, the GLUT4 localization (GLUT4; mdx mice following insulin treatment) was “remained localized in a perinuclear domain” and the AKT kinase activity (AKT; [7]) was “no significant change”.
For `CN(C)C(=N)NC(=N)N` [Metformin, N,N-dimethylimidodicarbonimidicdiamide], the “hypoglycemia or adverse health effects” value (mdx mice [2]) is listed as “no evidence of hypoglycemia or adverse health effects”, the “incidence of lactic acidosis” value ([3]; patients) is listed as “about 0.03 cases per 1000 patients years of treatment” and the “mortality risk of lactic acidosis” value ([3]; patients) is listed as “about 0.015 per 1000 patient-years”. For the same compound, the “gastrointestinal adverse effects, notably diarrhea” value ([3]; remit when the dosage is reduced) was “less than 20 % of patients”, the “skeletal muscle glycogen content” value (mdx mice [4]) was “complete normalization of glycogen content” and the “reduction of GSK-3β activity compared to mdx-S control” value (GSK-3β; DIA muscle) was 66%. For the same compound, the “reduction of GSK-3β activity compared to mdx-S control” value (GSK-3β; TA muscle) was 31%, the utrophin protein levels (DGC; gastrocnemius, compared to mdx-Saline control) was “increased” and the β-dystroglycan protein expression (DGC; [8]) was “increased”. The γ-sarcoglycan protein expression (DGC; [8]) was “increased”, the “sarcolemmal distribution of β-dystroglycan” value (DGC; [9]) was “notable increase” and the “sarcolemmal distribution of γ-sarcoglycan” value (DGC; [9]) was “notable increase”. The “utrophin along the extrasynaptic sarcolemma” value (DGC; [9]) was “robust increase”, the “proportion of smaller myofibers (CSA<1500 μm^2)” value (mdx mice [1]; DIA, untreated 38%) was 23% and the focal necrosis (mdx mice [1]; TA, DIA, gastrocnemius and soleus of mdx mice, 28-day metformin vs saline) was “significant decline in the focal necrosis”. The “proportion of smaller myofibers (CSA<1500 μm^2)” value (mdx mice [1]; TA, untreated 22%) was 14%, the “fibers displaying central nuclei” value (mdx mice [1]; mdx-M fibers after 28 days metformin, untreated mdx-S 55%) was ~38% and the “myofibers positively stained for EBD” value (mdx mice [5]) was 22%. The GLUT4 localization (GLUT4; TA muscle of mdx mice, metformin treatment) was “restoration of GLUT4 protein to that observed in wild-type skeletal muscle”, the “increase in AKT kinase activity compared to mdx-S control” value (AKT; DIA muscle) was ~80% and the “increase in AKT kinase activity compared to mdx-S control” value (AKT; TA muscle) was 83%. The “elevation in AMPK kinase activity over baseline levels in mdx-S control” value (AMPK; DIA muscle) was 55%, the “elevation in AMPK kinase activity over baseline levels in mdx-S control” value (AMPK; TA muscle) was 75% and the “rotorod running time (fall latency)” value (mdx mice [6]) was “significant improvement in running time”.
